Assay results published in US20250074943A1, “DLL3 BINDING PEPTIDES AND USES THEREOF” (AMGEN INC., priority 2021, published 2025).
Like-named read-outs stand apart in the source and are kept apart here. Bridge positions count the residues as written; N and C are the ends. Peptide text beside a SMILES is read from it.

Target: T1, recombinant DLL3 ectodomain (rhDLL3-Fc) (Homo sapiens, UniProt Q9NYJ7)
T1 construct: The recombinant DLL3 ectodomain (rhDLL3-Fc) was biotinylated; Fc
T1 sequence (Q9NYJ7 27-492 limits assumed): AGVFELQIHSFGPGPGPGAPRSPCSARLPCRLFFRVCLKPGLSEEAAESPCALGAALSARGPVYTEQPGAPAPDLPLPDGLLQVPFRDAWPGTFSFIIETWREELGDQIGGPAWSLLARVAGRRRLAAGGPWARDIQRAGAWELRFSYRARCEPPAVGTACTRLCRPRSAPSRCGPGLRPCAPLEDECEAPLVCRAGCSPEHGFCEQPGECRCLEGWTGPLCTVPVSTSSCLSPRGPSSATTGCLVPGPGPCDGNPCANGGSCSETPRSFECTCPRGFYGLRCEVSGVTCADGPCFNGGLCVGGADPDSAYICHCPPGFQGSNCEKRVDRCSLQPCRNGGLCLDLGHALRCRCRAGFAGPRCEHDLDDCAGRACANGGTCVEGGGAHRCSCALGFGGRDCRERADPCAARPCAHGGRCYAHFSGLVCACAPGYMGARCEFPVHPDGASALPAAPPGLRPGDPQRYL
Test: Binding kinetic assay using Bio-layer interferometry (BLI)
Details: for binding mode to DLL3: peptides at 20, 4 and 0.8 μM, fit to 1:1 Langmuir binding model
Method: Binding kinetic assays were performed using Bio-layer interferometry (BLI) technology. The recombinant DLL3 ectodomain (rhDLL3-Fc) was biotinylated using EZ-Link Sulfo-NHS-LC-LC-Biotin Kit according to the manufacturer's protocol (Pierce by Thermo Fisher Scientific). The recombinant protein was incubated with an excess of NHS-LC-LC Biotin ester, in a molar ratio of 1:3 (protein: biotin), at 25° C. for 90 min. The un-reacted biotin ester was removed by subsequent buffer exchange on 0.5 ml Zeba spin desalting columns 7K MWCO (Pierce by Thermo Fisher Scientific).

[1] = Table 4, ± values from three independent experiments, read-out: RT (residence time) (converted)

C[C@@H](O)[C@@H]1NC(=O)CNC(=O)[C@H]([C@@H](C)O)NC(=O)[C@@H](NC(=O)CNC(=O)[C@@H](N)Cc2c[nH]c3ccccc23)CSSC[C@@H](C(=O)N[C@@H](Cc2c[nH]c3ccccc23)C(=O)N[C@@H](Cc2c[nH]c3ccccc23)C(N)=O)NC(=O)[C@H]([C@@H](C)O)NC(=O)[C@H](CCC(=O)O)NC(=O)[C@H](CC(N)=O)NC(=O)CNC(=O)[C@H](Cc2c[nH]c3ccccc23)NC1=O [PepSP1213] (H-WGCTGTWGNETCWW-NH2; disulfide 3-12; N-terminus assumed)
residence time [1]: 0.0227 min

CC(C)[C@H](NC(=O)[C@@H]1CSSC[C@H](NC(=O)[C@H](Cc2ccc(O)cc2)NC(=O)[C@H](CC(=O)O)NC(=O)[C@H](Cc2ccccc2)NC(=O)[C@H](CCC(=O)O)NC(=O)[C@@H](NC(=O)[C@@H](NC(=O)[C@H](CCC(=O)O)NC(=O)[C@H](C)N)[C@@H](C)O)C(C)C)C(=O)N[C@@H](Cc2ccc(O)cc2)C(=O)NCC(=O)N[C@@H](CC(=O)O)C(=O)N[C@@H](C(C)C)C(=O)N[C@@H](CCC(=O)O)C(=O)N[C@@H](CCC(=O)O)C(=O)N[C@@H](Cc2c[nH]c3ccccc23)C(=O)N[C@@H]([C@@H](C)O)C(=O)N1)C(=O)N[C@@H](Cc1ccc(O)cc1)C(N)=O [PepSP1166] (H-AETVEFDYCYGDVEEWTCVY-NH2; disulfide 9-18; N-terminus assumed)
residence time [1]: 0.8 min
binding mode to DLL3: dose-response saturable binding

CC(C)[C@H](NC(=O)[C@@H](NC(=O)[C@H](CCC(=O)O)NC(=O)[C@H](C)N)[C@@H](C)O)C(=O)N[C@@H](CCC(=O)O)C(=O)N[C@@H](Cc1ccccc1)C(=O)N[C@@H](Cc1ccc(O)cc1)C(=O)NCC(=O)N[C@H]1CSSC[C@@H](C(=O)N[C@@H](C)C(=O)N[C@@H](Cc2c[nH]c3ccccc23)C(N)=O)NC(=O)[C@H]([C@@H](C)O)NC(=O)[C@H](Cc2c[nH]c3ccccc23)NC(=O)CNC(=O)[C@H](CCCCN)NC(=O)[C@H](Cc2c[nH]c3ccccc23)NC(=O)[C@H](CC(=O)O)NC(=O)[C@H](Cc2c[nH]c3ccccc23)NC(=O)[C@H](CCCCN)NC1=O [PepSP1168] (H-AETVEFYGCKWDWKGWTCAW-NH2; disulfide 9-18; N-terminus assumed)
residence time [1]: 0.733 min
binding mode to DLL3: dose-response saturable binding

CC(C)[C@H](NC(=O)[C@@H](NC(=O)[C@H](CCC(=O)O)NC(=O)[C@H](C)N)[C@@H](C)O)C(=O)N[C@@H](CCC(=O)O)C(=O)N[C@@H](Cc1ccccc1)C(=O)N[C@@H](Cc1c[nH]c2ccccc12)C(=O)N[C@@H](CO)C(=O)N[C@H]1CSSC[C@@H](C(=O)NCC(=O)N[C@@H](Cc2c[nH]c3ccccc23)C(N)=O)NC(=O)[C@H](CO)NC(=O)[C@H](Cc2ccc(O)cc2)NC(=O)[C@H]([C@@H](C)O)NC(=O)[C@H](Cc2ccc(O)cc2)NC(=O)[C@H](CCC(=O)O)NC(=O)[C@H](CC(=O)O)NC(=O)[C@H](C)NC(=O)[C@H](C)NC(=O)CNC(=O)CNC(=O)[C@H](Cc2c[nH]c3ccccc23)NC(=O)[C@H](Cc2c[nH]c3ccccc23)NC(=O)[C@H](CCCCN)NC1=O [PepSP1182] (H-AETVEFWSCKWWGGAADEYTYSCGW-NH2; disulfide 9-23; N-terminus assumed)
residence time [1]: 1.61 min
binding mode to DLL3: dose-response saturable binding
residence time (range over the seven peptides, read-out: residence time): 1 to 3 min
affinity (wider dose-response 10×KD to 0.1×KD): double-digit nM range

CC(C)[C@H](NC(=O)[C@@H](NC(=O)[C@H](CCC(=O)O)NC(=O)[C@H](C)N)[C@@H](C)O)C(=O)N[C@@H](CCC(=O)O)C(=O)N[C@@H](Cc1ccccc1)C(=O)N[C@@H](CC(=O)O)C(=O)NCC(=O)N[C@H]1CSSC[C@@H](C(=O)N[C@@H](Cc2c[nH]c3ccccc23)C(=O)N[C@@H](Cc2c[nH]c3ccccc23)C(N)=O)NC(=O)[C@H]([C@@H](C)O)NC(=O)[C@H](Cc2c[nH]c3ccccc23)NC(=O)[C@H](CCC(=O)O)NC(=O)[C@H](Cc2ccc(O)cc2)NC(=O)[C@H](Cc2c[nH]c3ccccc23)NC(=O)[C@H](CC(=O)O)NC(=O)CNC(=O)[C@H](CCCCN)NC1=O [PepSP1164] (H-AETVEFDGCKGDWYEWTCWW-NH2; disulfide 9-18)
Kd (Table 4, global fitting 1:1 Langmuir, koff vs kon ratio, ± values from three independent experiments): 125 nM
residence time [1]: 2.08 min
binding mode to DLL3: dose-response saturable binding
